Test results as given in US8299070B2, “Indole compounds and pharmaceutical use thereof” (Japan Tobacco Inc., priority 2009, dated 2012).

target: T1, hITK enzyme (FLAG-tagged full-length hITK) (Homo sapiens, UniProt Q08881); assay: ITK inhibitory activity (HTRF kinase assay, biotinylated GST-SLP76 substrate); format: biochemical; details: IC50 calculated from the 2 test compound concentrations sandwiching 50% ITK inhibitory rate
T1 construct: strongly expressing FLAG-tagged full-length hITK in Sf9 cells; FLAG; made in house; host or cells: Sf9 insect cells (ITK); Escherichia coli (GST-SLP76 substrate)
T1 sequence (Q08881 1-620): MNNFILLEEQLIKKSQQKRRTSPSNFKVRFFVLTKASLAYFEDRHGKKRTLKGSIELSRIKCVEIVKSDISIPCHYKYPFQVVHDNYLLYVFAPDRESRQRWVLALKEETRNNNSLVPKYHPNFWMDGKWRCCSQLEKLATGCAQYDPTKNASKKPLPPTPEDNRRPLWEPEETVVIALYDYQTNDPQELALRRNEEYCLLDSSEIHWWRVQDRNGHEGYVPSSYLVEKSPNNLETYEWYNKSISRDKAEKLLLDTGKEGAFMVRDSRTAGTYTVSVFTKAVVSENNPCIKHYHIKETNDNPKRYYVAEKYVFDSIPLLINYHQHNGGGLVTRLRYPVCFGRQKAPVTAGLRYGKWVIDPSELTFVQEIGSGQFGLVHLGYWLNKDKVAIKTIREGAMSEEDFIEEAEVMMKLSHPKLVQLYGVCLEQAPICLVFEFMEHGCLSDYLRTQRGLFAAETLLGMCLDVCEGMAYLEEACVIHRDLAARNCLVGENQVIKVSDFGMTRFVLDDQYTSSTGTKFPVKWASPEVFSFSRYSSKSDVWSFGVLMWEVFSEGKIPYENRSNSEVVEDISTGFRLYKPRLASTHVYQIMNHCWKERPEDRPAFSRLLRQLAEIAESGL
Summary of the method: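 Sf9-expressed hITK (50 ng/mL enzyme solution) reacted 10 min at RT in MOPS pH 7.0, 10 mmol/L MgCl2, 1 mmol/L DTT with E. coli SLP76 aa95–175 substrate; substrate solution held 100 µmol/L ATP (6 µmol/L for selected compounds). HTRF 665/620 ratio, blank-corrected; IC50 interpolated between two concentrations bracketing 50% inhibition.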

| SMILES | IC50 |
| --- | --- |
| CC(=O)N(CCO)c1ccc2cc(-c3n[nH]c4c3CCC(C)(C)C4)[nH]c2c1 [Example 214] | < 3 nM |
| CN(C)CCN(C(=O)C1CCCCC1)c1ccc2cc(-c3n[nH]c4c3CCC(C)(C)C4)[nH]c2c1 [Example 215] | < 3 nM |
| CN(C)CCCN(C(=O)C1CCCCC1)c1ccc2cc(-c3n[nH]c4c3CCC(C)(C)C4)[nH]c2c1 [Example 218] | < 3 nM |
| CN(C)CCN(C(=O)CC1CCCCC1)c1ccc2cc(-c3n[nH]c4c3CCC(C)(C)C4)[nH]c2c1 [Example 219] | 4 nM |
| CN(C)CCN(C(=O)C1CCCO1)c1ccc2cc(-c3n[nH]c4c3CCC(C)(C)C4)[nH]c2c1 (stereo not shown) [Example 220] | < 3 nM |
| COCC(=O)N(CCN(C)C)c1ccc2cc(-c3n[nH]c4c3CCC(C)(C)C4)[nH]c2c1 [Example 222] | < 3 nM |
| CN(C)CCCN(C(=O)C1CCCO1)c1ccc2cc(-c3n[nH]c4c3CCC(C)(C)C4)[nH]c2c1 (stereo not shown) [Example 224] | 1 nM |
| CC1(C)CCc2c(-c3cc4ccc(N5CCC(O)C5=O)cc4[nH]3)n[nH]c2C1 (stereo not shown) [Example 227] | 34 nM |
| CC1(C)CCc2c(-c3cc4ccc(N5CCC(CO)C5=O)cc4[nH]3)n[nH]c2C1 (stereo not shown) [Example 228] | 40 nM |
| CC1CCN(c2ccc3cc(-c4n[nH]c5c4CCC(C)(C)C5)[nH]c3c2)C1=O (stereo not shown) [Example 229] | 38 nM |
| CC1(C)CCc2c(-c3cc4ccc(N5CCC(C)(CO)C5=O)cc4[nH]3)n[nH]c2C1 (stereo not shown) [Example 230] | 25 nM |
| CC1(C)CCc2c(-c3cc4ccc(N(CCO)C(=O)C5CCCC5)cc4[nH]3)n[nH]c2C1 [Example 231] | 2 nM |
| CC1(C)CCc2c(-c3cc4ccc(N(CCO)C(=O)CC5CCCOC5)cc4[nH]3)n[nH]c2C1 (stereo not shown) [Example 232] | 3 nM |
| CO[C@H]1CC[C@H](C(=O)N(CCO)c2ccc3cc(-c4n[nH]c5c4CCC(C)(C)C5)[nH]c3c2)CC1 [Example 233] | 10 nM |
| CC1(C)CCc2c(-c3cc4ccc(N(CCO)C(=O)[C@H]5CC[C@H](O)CC5)cc4[nH]3)n[nH]c2C1 [Example 234] | 16 nM |
| CC1(C)CCc2c(-c3cc4ccc(N(CCO)C(=O)CC5CCCCC5)cc4[nH]3)n[nH]c2C1 [Example 235] | 8 nM |
| CC1(C)CCc2c(-c3cc4ccc(N(CCO)C(=O)C5CCCO5)cc4[nH]3)n[nH]c2C1 (stereo not shown) [Example 237] | 2 nM |

| SMILES | IC50 |
| --- | --- |
| CC1(C)CCc2c(-c3cc4ccc(N(CCO)C(=O)C5CCCCC5)cc4[nH]3)n[nH]c2C1 [Example 239] | 5 nM |
| CO[C@H]1CC[C@@H](C(=O)N(CCO)c2ccc3cc(-c4n[nH]c5c4CCC(C)(C)C5)[nH]c3c2)CC1 [Example 240] | 3 nM |
| COC1(C)CCN(c2ccc3cc(-c4n[nH]c5c4CCC(C)(C)C5)[nH]c3c2)C1=O (stereo not shown) [Example 243] | 24 nM |
| CC1(C)CCc2c(-c3cc4ccc(N5CCC(C)(O)C5=O)cc4[nH]3)n[nH]c2C1 (stereo not shown) [Example 244] | 23 nM |
| CC(C)CC(=O)N(CCO)c1ccc2cc(-c3n[nH]c4c3CCC(C)(C)C4)[nH]c2c1 [Example 247] | 4 nM |
| CC1(C)CCc2c(-c3cc4ccc(N(CCO)C(=O)[C@H]5CC[C@@H](O)CC5)cc4[nH]3)n[nH]c2C1 [Example 248] | 2 nM |
| CC1(C)CCc2c(-c3cc4ccc(N5CCC(C6CCCCC6)C5=O)cc4[nH]3)n[nH]c2C1 (stereo not shown) [Example 250] | 139 nM |
| CC1(C)CCc2c(-c3cc4ccc(N5CCC(CO)(C6CCCCC6)C5=O)cc4[nH]3)n[nH]c2C1 (stereo not shown) [Example 251] | 34 nM |
| CC1(C)CCc2c(-c3cc4ccc(N(CCO)C(=O)CN5CCCCC5=O)cc4[nH]3)n[nH]c2C1 [Example 253] | 2 nM |
| CC1(C)CCc2c(-c3cc4ccc(N(CCO)C(=O)CN5CCOCC5)cc4[nH]3)n[nH]c2C1 [Example 254] | 5 nM |
| CC1(C)CCc2c(-c3cc4ccc(N(CCO)C(=O)CN5CCCCCC5=O)cc4[nH]3)n[nH]c2C1 [Example 256] | 1 nM |
| CC1CCN(CC(=O)N(CCO)c2ccc3cc(-c4n[nH]c5c4CCC(C)(C)C5)[nH]c3c2)C1=O (stereo not shown) [Example 257] | 1 nM |
| COCCN(c1ccc2cc(-c3n[nH]c4c3CCC(C)(C)C4)[nH]c2c1)C(=O)[C@H]1CC[C@@H](O)CC1 [Example 259] | 3 nM |
| CCN(C(=O)CN1CCOC(C)C1=O)c1ccc2cc(-c3n[nH]c4c3CCC(C)(C)C4)[nH]c2c1 (stereo not shown) [Example 260] | < 1 nM |
| COCCN(C(=O)CN1C(=O)COC[C@H]1C)c1ccc2cc(-c3n[nH]c4c3CCC(C)(C)C4)[nH]c2c1 [Example 262] | 3 nM |
| COCCN(C(=O)CN1CCOC(C)C1=O)c1ccc2cc(-c3n[nH]c4c3CCC(C)(C)C4)[nH]c2c1 (stereo not shown) [Example 265] | 2 nM |

The remaining lines, values ahead:

| IC50 | SMILES |
| --- | --- |
| 8 nM | CN(C)CCN(C(=O)C1CCOCC1)c1ccc2cc(-c3n[nH]c4c3CCC(C)(C)C4)[nH]c2c1 [Example 216] |
| < 3 nM | CN(C)CCN(C(=O)C1CCOC1)c1ccc2cc(-c3n[nH]c4c3CCC(C)(C)C4)[nH]c2c1 (stereo not shown) [Example 217] |
| 3 nM | CN(C)CCN(C(=O)CC1CCOCC1)c1ccc2cc(-c3n[nH]c4c3CCC(C)(C)C4)[nH]c2c1 [Example 221] |
| 5 nM | CN(C)CCCN(C(=O)C1CCOCC1)c1ccc2cc(-c3n[nH]c4c3CCC(C)(C)C4)[nH]c2c1 [Example 223] |
| 2 nM | CN(C)CCCN(C(=O)C1CCOC1)c1ccc2cc(-c3n[nH]c4c3CCC(C)(C)C4)[nH]c2c1 (stereo not shown) [Example 225] |
| 2 nM | CN(C)CCCN(C(=O)CC1CCOCC1)c1ccc2cc(-c3n[nH]c4c3CCC(C)(C)C4)[nH]c2c1 [Example 226] |
| 6 nM | CC1(C)CCc2c(-c3cc4ccc(N(CCO)C(=O)C5CCOCC5)cc4[nH]3)n[nH]c2C1 [Example 236] |
| 2 nM | CC1(C)CCc2c(-c3cc4ccc(N(CCO)C(=O)C5CCOC5)cc4[nH]3)n[nH]c2C1 (stereo not shown) [Example 238] |
| 23 nM | CC(C(=O)N(CCO)c1ccc2cc(-c3n[nH]c4c3CCC(C)(C)C4)[nH]c2c1)C1CCCCC1 (stereo not shown) [Example 241] |
| 3 nM | CC(C(=O)N(CCO)c1ccc2cc(-c3n[nH]c4c3CCC(C)(C)C4)[nH]c2c1)C1CCOCC1 (stereo not shown) [Example 242] |
| 10 nM | CC1(C)CCc2c(-c3cc4ccc(N(CCO)C(=O)C(O)C5CCCOC5)cc4[nH]3)n[nH]c2C1 (stereo not shown) [Example 245] |
| 7 nM | CC1(C)CCc2c(-c3cc4ccc(N(CCO)C(=O)C(O)C5CCCOC5)cc4[nH]3)n[nH]c2C1 (stereo not shown) [Example 246] |
| 7 nM | CC1(C)CCc2c(-c3cc4ccc(N(CCO)C(=O)CC5CCOCC5)cc4[nH]3)n[nH]c2C1 [Example 249] |
| 11 nM | C[C@H](C(=O)N(CCO)c1ccc2cc(-c3n[nH]c4c3CCC(C)(C)C4)[nH]c2c1)N1CCOCC1 [Example 252] |
| 3 nM | C[C@@H](C(=O)N(CCO)c1ccc2cc(-c3n[nH]c4c3CCC(C)(C)C4)[nH]c2c1)N1CCOCC1 [Example 255] |
| 4 nM | CCN(c1ccc2cc(-c3n[nH]c4c3CCC(C)(C)C4)[nH]c2c1)C(=O)[C@H]1CC[C@@H](O)CC1 [Example 258] |
| 7 nM | CCN(C(=O)C(C)C1CCOCC1)c1ccc2cc(-c3n[nH]c4c3CCC(C)(C)C4)[nH]c2c1 (stereo not shown) [Example 263] |
| 10 nM | COCCN(C(=O)C(C)C1CCOCC1)c1ccc2cc(-c3n[nH]c4c3CCC(C)(C)C4)[nH]c2c1 (stereo not shown) [Example 264] |
| 7 nM | CCN(c1ccc2cc(-c3n[nH]c4c3CCC(C)(C)C4)[nH]c2c1)C(=O)[C@H]1CC[C@@H](OC)CC1 [Example 266] |
